Measured values: US20020004519A1, “METHOD FOR REDUCING CHLORIDE SECETION BY INTESTINAL EPITHLIAL CELLS IN SITU” (priority 1998, published 2002)

What was measured:
[1] = system: T84 cells; assay: Electrogenic Cl- secretion (short circuit current, Isc) in confluent T84 monolayers; format: cell-based, human; conditions: for Inhibition of cAMP and Ca++ elicited Cl- secretion: comparison of compounds tested
[2] = system: cAMP- and Ca++-sensitive basolateral K+ channels of T84 cells; assay: Basolateral K+ conductance in T84 monolayers permeabilized apically with amphotericin B; format: cell-based, human; conditions: for Time course of K+ transport after treatment with forskolin and carbachol: forskolin 10 μM (cAMP agonist), carbachol 100 μM (Ca++ agonist)
Procedure: Selective mebrane Permeabilization and Measurement of Potassium Conductance of the Basolateral Membrane. The basolateral potassium conductance was measured using the technique developed by Dawson and co-workers. A potassium gradient (mucosal to serosal) was first established across the monolayer using asymmetric mucosal and serosal buffers containing K^+ as the sole permeant ion. The addition of amphotericin B (20 μM) to the mucosal reservoir forms conductive pores in the apical membrane, and thus removes all resistance to transepithelial potassium movement across this membrane. Thus, under the conditions of the experiment, in which the monolayer is short circuited (i.e., voltage-clamped at zero potential) and the transepithehal potassium gradient is constant, the amphotericin-dependent Isc becomes a measure of the rate of the transepithelial potassium flux across basolateral membranes. Changes in short circuit current (Isc), then represent changes in basolateral K^+ conductances (gK). Isc and K^+ conductances were measured using calomel electrodes, 3M KCI-agar bridges, and a voltage clamp (University of Iowa, Iowa City). To generate a voltage-current channel relationships, currents were elicited by 1 sec test potentials from −80 to +80 in 10 mV increments in the asymmetrical high K^+ gluconate solution. Calculation of basolateral membrane K^+ permeability: Membrane permeabilities were calculated according to the formula:
^pK=(cm/s)=^JK(mM/cm^2·s)/Δ[K^+](mM/cm^3)
where Δ [K^+] is equal to the difference in K^+ concentration (135 mM) between the asymmetric apical and basolateral bathing solutions. Maximal Isc values were converted into K^+ fluxes by dividing by the Faraday constant F (96,500 coulombs/mol) as previously described (Huflejt et al., J. Clin. Invest. 93: 1900-1910 (1994)).
Basolateral K+ transport was examined in T84 monolayers permeabilized apically by pretreatment with amphotericin B. Apical and basolateral buffers contained K+ as the sole permeant ion. All studies were performed with a 135 mM basolaterally directed K+ gradient. This method has been utilized previously to examine both Cl− and K+ transport in T84 cells and HT29-Cl0.16E cells. Briefly, ion conductances in the luminal or basolateral membranes of confluent T84 cell monolayers can be assessed separately by selectively permeabilizing the apical or basolateral membrane using the ionophore amphotericin B. This artificially removes all electrical resistance to ion transport across the plasma membrane containing pores formed by amphotericin B. As a result, the intact contralateral plasma membrane becomes rate limiting for transepithelial ion transport. Agonist-dependent changes in ion conductances can be assessed directly either as transepithelial short circuit current (Isc) in the presence of established ion gradients, or as transepithelial conductance (G) in the presence of established transepithelial potentials.

[3] = system: basolateral NaK2Cl cotransporters of T84 cells; assay: Bumetanide-sensitive 86Rb uptake in T84 monolayers; format: cell-based, human
Procedure: Confluent monolayers on 5 cm^2 Transwell inserts were incubated for 30 minutes in HBSS at 37° C. […] Monolayers were cut from their inserts, placed into scintillation vials, and counted using standard methods.

[4] = system: cholera toxin-induced intestinal fluid secretion; format: in vivo, Balb/C mice
[5] = system: apical membrane Cl- channels of T84 cells; assay: Apical Cl- conductance in T84 monolayers permeabilized basolaterally with amphotericin B; format: cell-based, human; conditions: forskolin 10 μM; symmetrical Cl- 142 mM
[6] = system: basolateral K+ channels of T84 cells; assay: 86Rb efflux from T84 monolayers as indicator of basolateral K+ channel activity; format: cell-based, human
Procedure: J. Physiol (Cell Physiol. 28):[…]-[…] (1990). […] One ml samples were obtained and replaced from the basolateral reservoir. […] Finally, the cell monolayer was rinsed, cut with its support from the polystyrene ring, and the residual cell-associated radioactivity was determined. Monolayers were maintained at 37° C. in room air throughout the study. ^86Rb was counted by scintillation counting and normalized to percent total uptake as previously described ([…], et al, Am. J. Physiol. (Cell Physiol. 28):[…]-[…] (1990).

[7] = system: rabbit colonic mucosa; assay: Ussing chamber studies using rabbit colonic mucosa; conditions: 30 μM; forskolin 10 μM
Procedure: 4 male, New Zealand rabbits (2.5 kg) were anesthetized by an intravenous injection of pentobarbital (0.5 ml/kg). A 15 cm length of distal colon was removed and opened longitudinally. […] The volume of fluid on each side of the mucosa was 7 ml. Potential difference and Isc were monitored continuously and registered every 10 minutes.

[8] = system: apical membrane Cl- channels of T84 cells; assay: 125I efflux from T84 monolayers as indicator of apical Cl- channel activity; format: cell-based, human
Procedure: J. Physiol. (Cell Physiol. 28):[…]-[…] (1990). […] After washing twice in fresh HBSS, 0.5 ml samples were obtained every two min from the apical reservoir and replaced with fresh HBSS. […] Finally, the cell monolayer was rinsed, cut with its support from the polystyrene ring, and the residual cell-associated radioactivity was determined. Monolayers were maintained at 37° C. in room air throughout the study. ^125I was counted by gamma counting and normalized to percent total uptake as previously described ([…], et al, Am. J. Physiol. (Cell Physiol 28):[…]-[…] (1990).

[9] = 33 μM during final 30 min of preincubation

Compound: CC(=O)N1CCN(c2ccc(OCC3COC(Cn4ccnc4)(c4ccc(Cl)cc4Cl)O3)cc2)CC1 (centres unmarked) [ketoconazole]
- Inhibition of cAMP and Ca++ elicited Cl- secretion [1]: effective at inhibiting chloride secretion

Compound: Clc1ccccc1C(c1ccccc1)(c1ccccc1)n1ccnc1 [clotrimazole]
- Time course of K+ transport after treatment with forskolin and carbachol [2]: significantly inhibited
- Reduction of the total amount of 86Rb uptake ([3]; 33 μM for 30 min, VIP, mean±SEM, n=6): 53.6±5.8%
- Effect on the fractional component of 86Rb uptake that was bumetanide-sensitive ([3]; 33 μM for 30 min, bumetanide 10 μM): no effect
- Bumetanide-sensitive fraction of 86Rb uptake ([3]; 0.5 h, 33 µM): 88+3.2 % total uptake
- Reduction of intestinal fluid secretion induced by cholera toxin ([4]; 5 hours): 86%
- Intestinal secretion in the absence of cholera toxin ([4]; mouse, in vivo): no effect
- Forskolin- or thapsigargin-stimulated Cl- conductances [5]: no detectable effect
- Cl- secretory response (Isc as percentage of control) to the Ca++-dependent agonist carbachol [1]: inhibited
- Cl- secretory response (Isc as percentage of control) to the cAMP mediated agonist VIP [1]: inhibited
- Secretory response to agonists of sequential steps in the cAMP signalling cascade ([1]; 33 μM preincubation, 5 μM VIP, 10 μM forskolin or 3 mM 8Br-cAMP): inhibited
- Cl- secretory response to Ca++-dependent agonists ([1]; 33 μM pretreatment, carbachol 100 μM, thapsigargin 5 μM or ionomycin 10 μM): inhibited strongly
- IC50 ([1]; Homo sapiens, T84, read-out: IC50 for inhibiting the secretory response to E. Coli heat-stabile toxin): 15 µM
- Reversibility of inhibition of Cl- secretion ([1]; after 60 min recovery in the presence of 0.01 mg/ml bovine serum albumin, n=4): 96±2%
- Apparent potency of inhibition at a fixed time point by side of application ([1]; basolateral versus apical application): greater when applied basolaterally than apically
- Inhibition of cAMP and Ca++ elicited Cl- secretion [1]: most potent inhibitor tested
- Potentiation of the Cl- secretory responses to either agonist at low doses ([1]; low doses (=10^-7 or less), VIP or carbachol): 5-10%
- 86Rb loading of the cells [6, 9]: did not alter
- Reduction of the rate constant for VIP-stimulated 86Rb efflux ([6]; 33 μM, VIP 5 μM): 87%
- Baseline and Ca++ stimulated 86RB efflux ([6]; T84 cells in the presence of VIP or thapsigargin, compared to cells not treated, FIG. 2): significantly inhibited
- Rate constant for VIP-stimulated 86Rb efflux ([6]; monolayers treated with clotrimazole 33 μM, VIP 5 μM, n=2 in triplicate, untreated 0.0465): 0.0062 % uptake/minute
- Rate constant for thapsigargin-stimulated 86Rb efflux ([6]; monolayers treated with clotrimazole 33 μM, thapsigargin 5 μM, n=2, untreated 0.048): 0.011 % uptake/minute
- Time course of forskolin induced Isc [7]: inhibited strongly
- 125I loading of the cells [8, 9]: did not alter
- Time course of 125I efflux from monolayers treated with VIP ([8]; 33 μM pretreatment, VIP): little or no effect
- Rate constant for 125I efflux ([8]; monolayers treated with clotrimazole (33 μM), VIP, n=2 in duplicate, untreated 0.0645): 0.0637 % uptake/minute

Compound: OC(c1ccccc1)(c1ccccc1)c1ccccc1Cl [2-chlorophenyl-bis-phenyl methanol]
- Time course of K+ transport after treatment with forskolin and carbachol [2]: Nearly identical results
- Inhibition of cAMP and Ca++ elicited Cl- secretion [1]: effective at inhibiting chloride secretion

Compound: Clc1ccc(COC(Cn2ccnc2)c2ccc(Cl)cc2Cl)c(Cl)c1 (centres unmarked) [miconazole]
- Inhibition of cAMP and Ca++ elicited Cl- secretion [1]: effective at inhibiting chloride secretion

Compound: charybdotoxin
- Inhibition of the carbachol-induced Ca++ IK ([2]; carbachol first, pretreatment with charybdotoxin 100 nM): 50%
- Effect on K+ transport induced by subsequent addition of forskolin ([2]; charybdotoxin 100 nM): no detectable effect
- Cl- secretory response (Isc as percentage of control) to the Ca++-dependent agonist carbachol [1]: strongly inhibited
- Cl- secretory response (Isc as percentage of control) to the cAMP mediated agonist VIP [1]: minimal affects

Compound: [Ba+2].[Cl-].[Cl-] [BaCl2]
- Effect on K+ transport induced by subsequent addition of carbachol ([2]; carbachol 100 μM, same monolayers, BaCl2 3 mM): no detectable effect
- Inhibition of the cAMP-sensitive IK elicited by forskolin ([2]; forskolin 10 μM, BaCl2 3 mM in basolateral reservoirs): greater than 70%
- Cl- secretory response (Isc as percentage of control) to the Ca++-dependent agonist carbachol [1]: no apparent affect
- Cl- secretory response (Isc as percentage of control) to the cAMP mediated agonist VIP [1]: strongly inhibited

Compound: Clc1ccc(COC(Cn2ccnc2)c2ccc(Cl)cc2Cl)cc1 (centres unmarked) [econazole]
- Inhibition of cAMP and Ca++ elicited Cl- secretion [1]: effective at inhibiting chloride secretion
